Experimental data reported in the CheMixHub viscosity set.
± gives the uncertainty stated by the source.

Assay: xn = mol fraction of the nth substance listed
Conditions: 101 kPa

c1ccncc1 + O
viscosity [mPa·s]
Conditions	298.15 K	303.15 K	308.15 K	313.15 K	318.15 K
x1 = 0.0201	1.122 ± 0.0096	0.9952 ± 0.0087	0.8906 ± 0.008	0.8042 ± 0.0076	0.7251 ± 0.007
x1 = 0.0503	1.379 ± 0.011	1.214 ± 0.0098	1.078 ± 0.009	0.9651 ± 0.0083	0.8727 ± 0.0077
x1 = 0.0701	1.532 ± 0.011	1.342 ± 0.01	1.187 ± 0.0095	1.058 ± 0.0087	0.9504 ± 0.0081
x1 = 0.0999	1.725 ± 0.013	1.505 ± 0.011	1.325 ± 0.01	1.175 ± 0.0093	1.05 ± 0.0086
x1 = 0.1203	1.837 ± 0.013	1.6 ± 0.012	1.405 ± 0.011	1.244 ± 0.0097	1.11 ± 0.0089
x1 = 0.1499	1.972 ± 0.014	1.713 ± 0.012	1.501 ± 0.011	1.326 ± 0.01	1.18 ± 0.0093
x1 = 0.1701	2.05 ± 0.014	1.778 ± 0.013	1.556 ± 0.011	1.373 ± 0.01	1.22 ± 0.0095
x1 = 0.1999	2.139 ± 0.015	1.853 ± 0.013	1.619 ± 0.012	1.426 ± 0.011	1.266 ± 0.0098
x1 = 0.2201	2.189 ± 0.015	1.897 ± 0.013	1.657 ± 0.012	1.467 ± 0.011	1.302 ± 0.01
x1 = 0.2502	2.235 ± 0.015	1.934 ± 0.014	1.688 ± 0.012	1.485 ± 0.011	1.316 ± 0.01
x1 = 0.2701	2.253 ± 0.015	1.949 ± 0.014	1.701 ± 0.012	1.496 ± 0.011	1.326 ± 0.01
x1 = 0.2999	2.265 ± 0.016	1.96 ± 0.014	1.711 ± 0.012	1.505 ± 0.011	1.334 ± 0.01
x1 = 0.3198	2.26 ± 0.016	1.957 ± 0.014	1.709 ± 0.012	1.504 ± 0.011	1.333 ± 0.01
x1 = 0.35	2.235 ± 0.015	1.937 ± 0.014	1.694 ± 0.012	1.492 ± 0.011	1.324 ± 0.01
x1 = 0.4002	2.15 ± 0.015	1.87 ± 0.013	1.64 ± 0.012	1.45 ± 0.011	1.289 ± 0.01
x1 = 0.4499	2.023 ± 0.014	1.77 ± 0.013	1.56 ± 0.012	1.384 ± 0.01	1.236 ± 0.0097
x1 = 0.5002	1.871 ± 0.013	1.648 ± 0.012	1.461 ± 0.011	1.304 ± 0.01	–
x1 = 0.5998	1.559 ± 0.012	1.395 ± 0.011	1.255 ± 0.0098	1.134 ± 0.0091	–
x1 = 0.7002	1.297 ± 0.01	1.177 ± 0.0094	1.073 ± 0.0088	0.9812 ± 0.0083	–
x1 = 0.8004	1.109 ± 0.0091	1.018 ± 0.0085	0.9375 ± 0.0081	0.8659 ± 0.0077	–
x1 = 0.8999	0.983 ± 0.0084	0.9101 ± 0.0079	0.8448 ± 0.0076	0.7862 ± 0.0072	–

CC(O)CCO (stereo not given) + NCCN
viscosity [mPa·s]
Conditions	298.15 K	303.15 K	308.15 K	313.15 K	318.15 K
x1 = 0.0339	1.64 ± 0.04	1.4 ± 0.03	1.3 ± 0.03	1.21 ± 0.03	1.04 ± 0.02
x1 = 0.069	1.98 ± 0.04	1.66 ± 0.04	1.56 ± 0.03	1.42 ± 0.03	1.23 ± 0.03
x1 = 0.1053	2.43 ± 0.05	2.01 ± 0.04	1.82 ± 0.04	1.7 ± 0.04	1.42 ± 0.03
x1 = 0.1429	3.03 ± 0.06	2.47 ± 0.05	2.24 ± 0.05	2.05 ± 0.04	1.71 ± 0.04
x1 = 0.1819	3.82 ± 0.08	3.07 ± 0.07	2.73 ± 0.06	2.54 ± 0.05	2.05 ± 0.04
x1 = 0.2223	4.9 ± 0.1	3.88 ± 0.08	3.4 ± 0.07	3.08 ± 0.07	2.49 ± 0.05
x1 = 0.2642	6.37 ± 0.14	4.97 ± 0.11	4.3 ± 0.09	3.85 ± 0.08	3.09 ± 0.07
x1 = 0.3078	8.35 ± 0.18	6.46 ± 0.14	5.45 ± 0.12	4.85 ± 0.1	3.81 ± 0.08
x1 = 0.353	11.2 ± 0.2	8.5 ± 0.18	7.1 ± 0.15	6.21 ± 0.13	4.83 ± 0.1
x1 = 0.4001	15.1 ± 0.3	11.2 ± 0.2	9.15 ± 0.19	7.91 ± 0.17	6.04 ± 0.13
x1 = 0.4491	20.4 ± 0.4	14.9 ± 0.3	12 ± 0.3	10.2 ± 0.2	7.56 ± 0.16
x1 = 0.5001	27.3 ± 0.6	19.6 ± 0.4	15.4 ± 0.3	13.1 ± 0.3	9.61 ± 0.2
x1 = 0.5533	36 ± 0.8	25.4 ± 0.5	19.7 ± 0.4	16.4 ± 0.3	12 ± 0.3
x1 = 0.6088	46.1 ± 1	32.1 ± 0.7	24.8 ± 0.5	20.4 ± 0.4	14.8 ± 0.3
x1 = 0.6667	56.3 ± 1.2	39.4 ± 0.8	29.9 ± 0.6	24.5 ± 0.5	18.2 ± 0.4
x1 = 0.7273	66.7 ± 1.4	47.4 ± 1	35.9 ± 0.8	28.7 ± 0.6	21.5 ± 0.5
x1 = 0.7908	77.5 ± 1.7	56 ± 1.2	41.7 ± 0.9	32.4 ± 0.7	24.4 ± 0.5
x1 = 0.8572	85.7 ± 1.9	62 ± 1.3	46.2 ± 1	35.8 ± 0.8	26.9 ± 0.6
x1 = 0.9269	91.6 ± 2.1	66.1 ± 1.4	49.3 ± 1	38.2 ± 0.8	28.6 ± 0.6
